Reference: patent publication US20260146044A1, “AROMATIC COMPOUND, PHARMACEUTICAL COMPOSITION CONTAINING SAME, AND USE THEREOF” (Increland, priority 2023, published 2026)

What follows are compounds tested on secretion levels of IL-6 in PBMC cells (assay: Inhibition of LPS+IL-1β-induced IL-6 secretion in PBMC (IL-6 ELISA)). Conditions: human PBMC, 24 h compound pre-incubation, 20 h stimulation.
Assay type: cell-based
Procedure: This experiment was carried out in RPMI 1640 medium containing 10% FBS/1% penicillin/streptomycin, with each of the compounds at an initial test concentration of 1 μM. The compound DMSO was dissolved to form a stock solution, which was gradiently diluted 5-fold with the culture medium to a 4× working solution concentration. The diluted solution was added to a 96-well plate with 50 μL per well. PBMC (batch No.: HPP20062307, Sichuan Hope Bio-tech Co., Ltd.) cells were counted, and diluted to a concentration of 2×10^6/mL. The diluted cells were added to the above compound-containing 96-well plate with 150 μL per well, fully mixed, and incubated in an incubator with 5% CO2 at 37° C. for 24 h. Then, LPS and […] were further added to final concentrations of 10 ng/mL and 20 ng/mL, respectively, and the cells were further incubated in the incubator with 5% CO2 at 37° C. for 20 h. Then, after centrifugation at 2,000 rpm for 4 min, the supernatant was diluted 110×, and detected using an IL-6 ELISA kit. An OD450 value was read, and converted to an IL-6 concentration based on a standard curve, to calculate an IC50 value by fitting a dose-effect curve using GraphPad 5.0.

SMILES | IC50 [nM]
Cc1nn(C2CCC(=O)NC2=O)c2cccc(C3CCN(CC4CCC(n5cc6cc(NC(=O)c7cnn8cccnc78)c(N7CCOCC7)cc6n5)CC4)CC3)c12 (stereo not drawn) [TM-26] | 12.2
COc1cc2nn([C@H]3CC[C@H](CN4CCC(c5cccc6c5c(C)nn6C5CCC(=O)NC5=O)CC4)CC3)cc2cc1NC(=O)c1cnn2ccc(N3CCOCC3)nc12 (stereo partly drawn) [TM-27] | 9.53
COc1cc2nn([C@H]3CC[C@H](CN4CCN(c5cccc6c5c(C)nn6C5CCC(=O)NC5=O)CC4)CC3)cc2cc1NC(=O)c1cnn2cccnc12 (stereo partly drawn) [TM-30] | 3.69
COc1cc2nn([C@H]3CC[C@H](CN4CCN(c5cccc6c5c(C)nn6C5CCC(=O)NC5=O)CC4)CC3)cc2cc1NC(=O)c1cccc(C)n1 (stereo partly drawn) [TM-32] | 22.2
COc1cc2nn([C@H]3CC[C@H](CN4CC5CN(c6cccc7c6c(C)nn7C6CCC(=O)NC6=O)CC5C4)CC3)cc2cc1NC(=O)c1cccc(C)n1 (stereo partly drawn) [TM-35] | 29.5
COc1cc2nn([C@H]3CC[C@H](CN4CC5CN(c6cccc7c6c(C)nn7C6CCC(=O)NC6=O)CC5C4)CC3)cc2cc1NC(=O)c1cccc(C(F)(F)F)n1 (stereo partly drawn) [TM-36] | 4.99
COc1cc2nn([C@H]3CC[C@H](CN4CC5CN(c6cccc7c6c(C)nn7C6CCC(=O)NC6=O)CC5C4)CC3)cc2cc1NC(=O)c1cnn2cccnc12 (stereo partly drawn) [TM-37] | 4.99
COc1cc2nn([C@H]3CC[C@H](CN4CC5CN(c6ccc7c(c6)c(C)nn7C6CCC(=O)NC6=O)CC5C4)CC3)cc2cc1NC(=O)c1cccc(C(F)(F)F)n1 (stereo partly drawn) [TM-39] | 115
Cc1nn(C2CCC(=O)NC2=O)c2ccc(N3CC4CN(C[C@H]5CC[C@H](n6cc7cc(NC(=O)c8cnn9cccnc89)c(N8CCOCC8)cc7n6)CC5)CC4C3)cc12 (stereo partly drawn) [TM-40] | 138
Cc1nn(C2CCC(=O)NC2=O)c2cccc(N3CCN(C[C@H]4CC[C@H](n5cc6cc(NC(=O)c7cnn8cccnc78)c(N7C[C@@H]8C[C@H]7CO8)cc6n5)CC4)CC3)c12 (stereo partly drawn) [TM-45] | 5.48
Cc1nn(C2CCC(=O)NC2=O)c2cccc(N3CCN(C[C@H]4CC[C@H](n5cc6cc(NC(=O)c7cnn8cccnc78)c(N7CCOC8(CC8)C7)cc6n5)CC4)CC3)c12 (stereo partly drawn) [TM-47] | 45.8
Cc1nn(C2CCC(=O)NC2=O)c2cccc(N3CC4CN(C[C@H]5CC[C@H](n6cc7cc(NC(=O)c8cnn9cccnc89)c(N8CCOC9(CC9)C8)cc7n6)CC5)CC4C3)c12 (stereo partly drawn) [TM-48] | 47.8
Cc1nn(C2CCC(=O)NC2=O)c2cccc(N3CCN(C[C@H]4CC[C@H](n5cc6cc(NC(=O)c7cnn8cccnc78)c(C(F)F)cc6n5)CC4)CC3)c12 (stereo partly drawn) [TM-49] | 16.5
Cc1nn(C2CCC(=O)NC2=O)c2cccc(N3CC4CN(C[C@H]5CC[C@H](n6cc7cc(NC(=O)c8cnn9cccnc89)c(C(F)F)cc7n6)CC5)CC4C3)c12 (stereo partly drawn) [TM-50] | 3.81
Cc1nn(C2CCC(=O)NC2=O)c2cccc(N3CCC(CN4CCC(n5cc6cc(NC(=O)c7cnn8cccnc78)c(N7CCOCC7)cc6n5)CC4)CC3)c12 (stereo not drawn) [TM-51] | 9.15
Cc1nn(C2CCC(=O)NC2=O)c2cccc(N3CCN(C[C@H]4CC[C@H](n5cc6cc(NC(=O)c7cnn8cccnc78)c(N7CCO[C@@H](C)C7)cc6n5)CC4)CC3)c12 (stereo partly drawn) [TM-52] | 10.5
Cc1nn(C2CCC(=O)NC2=O)c2cccc(N3CC4CN(C[C@H]5CC[C@H](n6cc7cc(NC(=O)c8cnn9cccnc89)c(N8CCO[C@@H](C)C8)cc7n6)CC5)CC4C3)c12 (stereo partly drawn) [TM-53] | 38.5
Cc1nn(C2CCC(=O)NC2=O)c2cccc(N3CCN(C[C@H]4CC[C@H](n5cc6cc(NC(=O)c7cnn8cccnc78)c(N7CCO[C@H](C)C7)cc6n5)CC4)CC3)c12 (stereo partly drawn) [TM-54] | 6.29
Cc1nn(C2CCC(=O)NC2=O)c2cccc(N3CCN(C[C@H]4CC[C@H](N5Cc6cc(NC(=O)c7cnn8cccnc78)c(N7CCOCC7)cc6C5=O)CC4)CC3)c12 (stereo partly drawn) [TM-58] | 3.53

SMILES | IC50 [nM]
Cc1nn(C2CCC(=O)NC2=O)c2cccc(N3CC4CN(C[C@H]5CC[C@H](N6Cc7cc(NC(=O)c8cnn9cccnc89)c(N8CCOCC8)cc7C6=O)CC5)CC4C3)c12 (stereo partly drawn) [TM-59] | 3.57
Cc1nn(C2CCC(=O)NC2=O)c2cccc(OC3CCN(C[C@H]4CC[C@H](N5Cc6cc(NC(=O)c7cnn8cccnc78)c(N7CCOCC7)cc6C5=O)CC4)CC3)c12 (stereo partly drawn) [TM-60] | 4.4
Cc1nn(C2CCC(=O)NC2=O)c2cccc(N3CCN(C[C@H]4CC[C@H](n5cc6cc(NC(=O)c7cnn8cccnc78)c(N7C[C@H]8C[C@@H]7CO8)cc6n5)CC4)CC3)c12 (stereo partly drawn) [TM-61] | 7.06
Cc1nn(C2CCC(=O)NC2=O)c2cccc(N3CC4CN(C[C@H]5CC[C@H](n6cc7cc(NC(=O)c8cnn9cccnc89)c(N8C[C@H]9C[C@@H]8CO9)cc7n6)CC5)CC4C3)c12 (stereo partly drawn) [TM-62] | 11.9
Cc1nn(C2CCC(=O)NC2=O)c2cccc(N3CCN(C[C@H]4CC[C@H](N5Cc6cc(NC(=O)c7cnn8cccnc78)c(N7CCO[C@H](C)C7)cc6C5=O)CC4)CC3)c12 (stereo partly drawn) [TM-63] | 0.9
Cc1nn(C2CCC(=O)NC2=O)c2cccc(N3CCN(C[C@H]4CC[C@H](N5Cc6cc(NC(=O)c7cnn8cccnc78)c(N(C)C)cc6C5=O)CC4)CC3)c12 (stereo partly drawn) [TM-65] | 7.15
Cc1nn(C2CCC(=O)NC2=O)c2cccc(N3CCC(CN4CCC(N5Cc6cc(NC(=O)c7cnn8cccnc78)c(N7CCOCC7)cc6C5=O)CC4)CC3)c12 (stereo not drawn) [TM-67] | 52.8
Cc1nn(C2CCC(=O)NC2=O)c2cccc(N3CCC(CN4CCC(N5Cc6cc(NC(=O)c7cnn8cccnc78)c(N7CCCOCC7)cc6C5=O)CC4)CC3)c12 (stereo not drawn) [TM-68] | 3.23
Cc1nn(C2CCC(=O)NC2=O)c2cccc(N3CCC(CN4CCC(N5Cc6cc(NC(=O)c7cnn8cccnc78)c(N7CCO[C@H](C)C7)cc6C5=O)CC4)CC3)c12 (stereo partly drawn) [TM-69] | 22.9
Cc1nn(C2CCC(=O)NC2=O)c2cccc(N3CCN(C[C@H]4CC[C@H](n5cc6cc(NC(=O)c7cnn8cccnc78)c(N(C)C)cc6n5)CC4)CC3)c12 (stereo partly drawn) [TM-70] | 1.18
Cc1nn(C2CCC(=O)NC2=O)c2cccc(N3CCC(CN4CCC(n5cc6cc(NC(=O)c7cnn8cccnc78)c(N(C)C)cc6n5)CC4)CC3)c12 (stereo not drawn) [TM-71] | 24.9
Cc1nn(C2CCC(=O)NC2=O)c2cccc(N3CCC(CN4CCC(n5cc6cc(NC(=O)c7cnn8cccnc78)c(N7CCO[C@H](C)C7)cc6n5)CC4)CC3)c12 (stereo partly drawn) [TM-72] | 6.82
Cc1nn(C2CCC(=O)NC2=O)c2cccc(N3CCN(C[C@H]4CC[C@H](n5cc6cc(NC(=O)c7cnn8cccnc78)c(N7CCOC[C@H]7C)cc6n5)CC4)CC3)c12 (stereo partly drawn) [TM-73] | 43.8
Cc1nn(C2CCC(=O)NC2=O)c2cccc(N3CCN(C[C@H]4CC[C@H](n5cc6cc(NC(=O)c7cnn8cccnc78)c(N7CCOC[C@@H]7C)cc6n5)CC4)CC3)c12 (stereo partly drawn) [TM-74] | 29.4
Cc1nn(C2CCC(=O)NC2=O)c2cccc(N3CCN(C[C@H]4CC[C@H](n5cc6cc(NC(=O)c7cnn8cccnc78)c(N7CCCOCC7)cc6n5)CC4)CC3)c12 (stereo partly drawn) [TM-79] | 39
Cc1nn(C2CCC(=O)NC2=O)c2cccc(N3CCC(CN4CCC(n5cc6cc(NC(=O)c7cnn8cccnc78)c(N7CCCOCC7)cc6n5)CC4)CC3)c12 (stereo not drawn) [TM-82] | 36.5
Cc1nn(C2CCC(=O)NC2=O)c2ccnc(N3CCN(C[C@H]4CC[C@H](n5cc6cc(NC(=O)c7cnn8cccnc78)c(N(C)C)cc6n5)CC4)CC3)c12 (stereo partly drawn) [TM-103] | 0.72
Cc1nn(C2CCC(=O)NC2=O)c2nccc(N3CCC4(CC3)CN(CC3CCC(n5cc6cc(NC(=O)c7cnn8cccnc78)c(N(C)C)cc6n5)CC3)C4)c12 (stereo not drawn) [TM-114] | 4.79

The compounds below were run on secretion levels of IL-6 in PBMC cells (assay: Inhibition of R848-induced IL-6 secretion in PBMC (IL-6 ELISA)). Conditions: human PBMC, 20 h compound pre-incubation, 24 h stimulation.
Assay type: cell-based
Procedure: This experiment was carried out in RPMI 1640 medium containing 10% FBS/1% penicillin/streptomycin, with each of the compounds at an initial test concentration of 1 μM. The compound DMSO was dissolved to form a stock solution, which was gradiently diluted 4-fold with the culture medium to a 4× working solution concentration. The diluted solution was added to a 96-well plate with 50 μL per well. PBMC (batch No.: HPP20062307, Sichuan Hope Bio-tech Co., Ltd.) cells were counted, and diluted to a concentration of 2×10^6/mL. The diluted cells were added to the above compound-containing 96-well plate with 150 μL per well, fully mixed, and incubated in an incubator with 5% CO2 at 37° C. for 20 h. Then, R848 was further added until a final concentration of […], and the cells were further incubated in the incubator with 5% CO2 at 37° C. for additional 24 h. Then, after centrifugation at 2,000 rpm for 4 min, the supernatant was diluted 110×, and detected using an IL-6 ELISA kit. An OD450 value was read, and converted to an IL-6 concentration based on a standard curve, to calculate an IC50 value by fitting a dose-effect curve using GraphPad 5.0.

SMILES | IC50 [nM]
COc1cc2nn([C@H]3CC[C@H](CN4CCC(c5cccc6c5c(C)nn6C5CCC(=O)NC5=O)CC4)CC3)cc2cc1NC(=O)c1cnn2ccc(N3CCOCC3)nc12 (stereo partly drawn) [TM-27] | 46.8
COc1cc2nn([C@H]3CC[C@H](CN4CCN(c5cccc6c5c(C)nn6C5CCC(=O)NC5=O)CC4)CC3)cc2cc1NC(=O)c1cnn2ccc(N3CCOCC3)nc12 (stereo partly drawn) [TM-28] | 23.3
COc1cc2nn([C@H]3CC[C@H](CN4CCN(c5cccc6c5c(C)nn6C5CCC(=O)NC5=O)CC4)CC3)cc2cc1NC(=O)c1cccc(C(F)(F)F)n1 (stereo partly drawn) [TM-29] | 56.3
Cc1nn(C2CCC(=O)NC2=O)c2cccc(N3CC4CN(C[C@H]5CC[C@H](n6cc7cc(NC(=O)c8cnn9cccnc89)c(N8C[C@@H]9C[C@H]8CO9)cc7n6)CC5)CC4C3)c12 (stereo partly drawn) [TM-46] | 46.8
Cc1nn(C2CCC(=O)NC2=O)c2cccc(N3CCN(C[C@H]4CC[C@H](n5cc6cc(NC(=O)c7cnn8cccnc78)c(N7CCO[C@H](C)C7)cc6n5)CC4)CC3)c12 (stereo partly drawn) [TM-54] | 4.26
Cc1nn(C2CCC(=O)NC2=O)c2cccc(N3CCN(C[C@H]4CC[C@H](N5Cc6cc(NC(=O)c7cnn8cccnc78)c(N7CCOCC7)cc6C5=O)CC4)CC3)c12 (stereo partly drawn) [TM-58] | 3.57
Cc1nn(C2CCC(=O)NC2=O)c2cccc(N3CC4CN(C[C@H]5CC[C@H](N6Cc7cc(NC(=O)c8cnn9cccnc89)c(N8CCOCC8)cc7C6=O)CC5)CC4C3)c12 (stereo partly drawn) [TM-59] | 2.21
Cc1nn(C2CCC(=O)NC2=O)c2cccc(N3CCN(C[C@H]4CC[C@H](n5cc6cc(NC(=O)c7cnn8cccnc78)c(N7C[C@H]8C[C@@H]7CO8)cc6n5)CC4)CC3)c12 (stereo partly drawn) [TM-61] | 3.01
